# According to PubChem BioAssay AID2060882 (Molecular Pharmacology Branch, DTP, NCI, 2025):
# “And” between values parts separate entries of the source, which are not always exact repeats. Identical values can stand only once.
# System: 898857-211-R-J1-PDC complex spheroids, growth % test/control
# Test: Anticancer human tumor 898857-211-R-J1-PDC patient-derived melanoma cell line growth inhibition [RAS]
# Conditions: for viability, T/C: stronger effect = lower value
# In short: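 Agents were tested in combination matrices in half-log decrements from a top concentration at or near clinical Cmax (10 microM if undetermined). Targets were multi-cell spheroids of tumour lines plus HUVEC and MSC stromal cells.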
# 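Also: spheroids exposed to compound for seven days before readout.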
# 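For viability, T/C in this document: 100% = DMSO vehicle control wells.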
structure (smiles),measurement,setting,value
CC1(C)CCC(Nc2ncc(C(F)(F)F)c(-c3c[nH]c4c(P(C)(C)=O)c(C#N)ccc34)n2)CN1 (configuration not stated),"viability, T/C",compound 0.000949 µM,92.3% and 96.9% and 98.6%
same,"viability, T/C",compound 0.003 µM,59.9% and 52.9% and 65.2%
same,"viability, T/C",compound 0.00949 µM,31.4% and 26.4% and 32.5%
same,"viability, T/C",compound 0.03 µM,20.2% and 16.2% and 24.3%
same,"viability, T/C",compound 0.0949 µM,17.3% and 16.8% and 20.4%
same,"viability, T/C",compound 0.3 µM,18.4% and 16.5% and 20%
same,IC50,curve of compound,4.47 nM and 3.41 nM and 5.16 nM
CCn1c(-c2cccnc2C(C)OC)c2c3cc(ccc31)N1CCOC(CC(NC(=O)C(C(C)C)N(C)C(=O)C3(F)CCN(C(=O)C#CC(C)(C)N(C)C)CC3)C(=O)N3CCCC(N3)C(=O)OCC(C)(C)C2)C1 (configuration not stated),"viability, T/C",compound 0.000949 µM,110% [middle of 6 runs]
same,"viability, T/C",compound 0.00949 µM,112% [middle of 6 runs]
same,"viability, T/C",compound 0.03 µM,103% [middle of 6 runs]
same,"viability, T/C",compound 0.0949 µM,92.8% [middle of 6 runs]
same,"viability, T/C",compound 0.3 µM,81.3% [middle of 6 runs]
same,IC50,"compound alone, run of 08/20/2024",> 300 nM
Nc1ccn(C2OC(CO)C(O)C2(F)F)c(=O)n1 (configuration not stated) + CCn1c(-c2cc(N3CCN(C)CC3)cnc2C(C)OC)c2c3cc(ccc31)-c1csc(n1)CC(NC(=O)C1CC1C)C(=O)N1CCCC(N1)C(=O)OCC(C)(C)C2,IC50,"curve of first compound, second compound 0.000949 µM",5.06 nM
same,IC50,"curve of first compound, second compound 0.003 µM",4.37 nM
same,IC50,"curve of first compound, second compound 0.00949 µM",4.35 nM
same,IC50,"curve of first compound, second compound 0.03 µM",5.4 nM
same,IC50,"curve of first compound, second compound 0.0949 µM",5.47 nM
same,IC50,"curve of first compound, second compound 0.3 µM",6.69 nM
same,"viability, T/C","second compound 0.000949 µM, first compound 0.00316 µM",74%
same,"viability, T/C","second compound 0.000949 µM, first compound 0.01 µM",15.3%
same,"viability, T/C","second compound 0.000949 µM, first compound 0.0316 µM",4.42%
same,"viability, T/C","second compound 0.000949 µM, first compound 0.1 µM",3.83%
same,"viability, T/C","second compound 0.000949 µM, first compound 0.316 µM",4.13%
same,"viability, T/C","second compound 0.000949 µM, first compound 1 µM",5.1%
same,"viability, T/C","second compound 0.003 µM, first compound 0.00316 µM",64.6%
same,"viability, T/C","second compound 0.003 µM, first compound 0.01 µM",13.1%
same,"viability, T/C","second compound 0.003 µM, first compound 0.0316 µM",4.34%
same,"viability, T/C","second compound 0.003 µM, first compound 0.1 µM",4.05%
same,"viability, T/C","second compound 0.003 µM, first compound 0.316 µM",5.71%
same,"viability, T/C","second compound 0.003 µM, first compound 1 µM",4.93%
same,"viability, T/C","second compound 0.00949 µM, first compound 0.00316 µM",63.7%
same,"viability, T/C","second compound 0.00949 µM, first compound 0.01 µM",14.4%
same,"viability, T/C","second compound 0.00949 µM, first compound 0.0316 µM",4.77%
same,"viability, T/C","second compound 0.00949 µM, first compound 0.1 µM",4.27%
same,"viability, T/C","second compound 0.00949 µM, first compound 0.316 µM",4.44%
same,"viability, T/C","second compound 0.00949 µM, first compound 1 µM",4.67%
same,"viability, T/C","second compound 0.03 µM, first compound 0.00316 µM",78%
same,"viability, T/C","second compound 0.03 µM, first compound 0.01 µM",18%
same,"viability, T/C","second compound 0.03 µM, first compound 0.0316 µM",4.69%
same,"viability, T/C","second compound 0.03 µM, first compound 0.1 µM",3.93%
same,"viability, T/C","second compound 0.03 µM, first compound 0.316 µM",5.09%
same,"viability, T/C","second compound 0.03 µM, first compound 1 µM",5.74%
same,"viability, T/C","second compound 0.0949 µM, first compound 0.00316 µM",72%
same,"viability, T/C","second compound 0.0949 µM, first compound 0.01 µM",25.8%
same,"viability, T/C","second compound 0.0949 µM, first compound 0.0316 µM",4.97%
same,"viability, T/C","second compound 0.0949 µM, first compound 0.1 µM",4.59%
same,"viability, T/C","second compound 0.0949 µM, first compound 0.316 µM",5.07%
same,"viability, T/C","second compound 0.0949 µM, first compound 1 µM",4.89%
same,"viability, T/C","second compound 0.3 µM, first compound 0.00316 µM",88.6%
same,"viability, T/C","second compound 0.3 µM, first compound 0.01 µM",29.3%
same,"viability, T/C","second compound 0.3 µM, first compound 0.0316 µM",5.64%
same,"viability, T/C","second compound 0.3 µM, first compound 0.1 µM",3.79%
same,"viability, T/C","second compound 0.3 µM, first compound 0.316 µM",4.58%
same,"viability, T/C","second compound 0.3 µM, first compound 1 µM",4.96%
CC(=O)OC12COC1CC(O)C1(C)C(=O)C(O)C3=C(C)C(OC(=O)C(O)C(NC(=O)OC(C)(C)C)c4ccccc4)CC(O)(C(OC(=O)c4ccccc4)C21)C3(C)C (configuration not stated) + C=CC(=O)N1CCN(c2nc(OCC3CCCN3C)nc3c(F)c(-c4nc(N)cc(C)c4C(F)(F)F)c(Cl)cc23)C(C)C1,IC50,"curve of first compound, second compound 0.00316 µM",< 31.6 nM
same,IC50,"curve of first compound, second compound 0.01 µM",< 31.6 nM
same,IC50,"curve of first compound, second compound 0.0316 µM",< 31.6 nM
same,IC50,"curve of first compound, second compound 0.1 µM",< 31.6 nM
same,IC50,"curve of first compound, second compound 0.316 µM",< 31.6 nM
same,IC50,"curve of first compound, second compound 1 µM",< 31.6 nM
same,"viability, T/C","second compound 0.00316 µM, first compound 0.0316 µM",12.3%
same,"viability, T/C","second compound 0.00316 µM, first compound 0.1 µM",15.6%
same,"viability, T/C","second compound 0.00316 µM, first compound 0.316 µM",14.2%
same,"viability, T/C","second compound 0.00316 µM, first compound 1 µM",15.5%
same,"viability, T/C","second compound 0.00316 µM, first compound 3.16 µM",21.2%
same,"viability, T/C","second compound 0.00316 µM, first compound 10 µM",20.4%
same,"viability, T/C","second compound 0.01 µM, first compound 0.0316 µM",12%
same,"viability, T/C","second compound 0.01 µM, first compound 0.1 µM",13.7%
same,"viability, T/C","second compound 0.01 µM, first compound 0.316 µM",10.5%
same,"viability, T/C","second compound 0.01 µM, first compound 1 µM",14.5%
same,"viability, T/C","second compound 0.01 µM, first compound 3.16 µM",21.1%
same,"viability, T/C","second compound 0.01 µM, first compound 10 µM",19.6%
same,"viability, T/C","second compound 0.0316 µM, first compound 0.0316 µM",13.1%
same,"viability, T/C","second compound 0.0316 µM, first compound 0.1 µM",13.1%
same,"viability, T/C","second compound 0.0316 µM, first compound 0.316 µM",14.3%
same,"viability, T/C","second compound 0.0316 µM, first compound 1 µM",14.8%
same,"viability, T/C","second compound 0.0316 µM, first compound 3.16 µM",24.2%
same,"viability, T/C","second compound 0.0316 µM, first compound 10 µM",20%
same,"viability, T/C","second compound 0.1 µM, first compound 0.0316 µM",11.5%
same,"viability, T/C","second compound 0.1 µM, first compound 0.1 µM",15.1%
same,"viability, T/C","second compound 0.1 µM, first compound 0.316 µM",14.3%
same,"viability, T/C","second compound 0.1 µM, first compound 1 µM",16.5%
same,"viability, T/C","second compound 0.1 µM, first compound 3.16 µM",16.2%
same,"viability, T/C","second compound 0.1 µM, first compound 10 µM",19.9%
same,"viability, T/C","second compound 0.316 µM, first compound 0.0316 µM",12.8%
same,"viability, T/C","second compound 0.316 µM, first compound 0.1 µM",15.5%
same,"viability, T/C","second compound 0.316 µM, first compound 0.316 µM",14.2%
same,"viability, T/C","second compound 0.316 µM, first compound 1 µM",16.9%
same,"viability, T/C","second compound 0.316 µM, first compound 3.16 µM",14.7%
same,"viability, T/C","second compound 0.316 µM, first compound 10 µM",21.1%
same,"viability, T/C","second compound 1 µM, first compound 0.0316 µM",12%
same,"viability, T/C","second compound 1 µM, first compound 0.1 µM",13.3%
same,"viability, T/C","second compound 1 µM, first compound 0.316 µM",12.1%
same,"viability, T/C","second compound 1 µM, first compound 1 µM",15.4%
same,"viability, T/C","second compound 1 µM, first compound 3.16 µM",19.4%
same,"viability, T/C","second compound 1 µM, first compound 10 µM",15.2%
